{
  "source": "patent US5744451A",
  "about": "“N-substituted glutamic acid derivatives with interleukin-1 β converting enzyme inhibitory activity” (Warner-Lambert Company, priority 1996, dated 1998)",
  "key": {"[1]": {"test_system": "human peripheral blood mononuclear cells (PBMCs)", "test": "Viability of PBMCs by MTT assay", "format": "cell-based", "details": "compound at 100 μM, additional 4 hours with MTT", "from_the_text": "Further evidence that compounds of Formula I are valuable inhibitors of ICE is provided by their ability to inhibit IL-1β production in human peripheral blood mononuclear cells (PBMCs) as described herein. PBMCs are isolated from heparinized blood by centrifugation over a ficoll cushion, then washed three times with phosphate-buffered saline. PBMCs are suspended in a medium containing RPMI 1640 with glutamine, penicillin, streptomycin and 2% human AB serum, then plated at 10^6 cells per well in 96-well flat bottom plates. PBMCs are stimulated overnight with 10 ng/mL of lipopolysaccharide (LPS, E. Coli strain 0111:B4; Calbiochem) in the presence or absence of a compound of Formula I. Medium is harvested and the level of mature IL-1β was determined using an ELISA kit from R & D Systems. Cells were cultured for an additional 4 hours in the presence of 3-(4,5-dimethylthiazol-2-yl)-2,5-diphenyltetrazolium bromide (MTT) to determine viability."}, "[2]": {"target": "T1, ICE (interleukin-1β converting enzyme) (Homo sapiens, UniProt P29466)", "T1 sequence (P29466 120-297 limits assumed)": "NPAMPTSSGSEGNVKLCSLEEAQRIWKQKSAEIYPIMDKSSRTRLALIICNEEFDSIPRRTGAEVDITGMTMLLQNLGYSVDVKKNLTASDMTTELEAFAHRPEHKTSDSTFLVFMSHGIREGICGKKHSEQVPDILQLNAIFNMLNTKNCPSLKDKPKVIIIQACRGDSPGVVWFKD", "T1 sequence (P29466 317-404 limits assumed)": "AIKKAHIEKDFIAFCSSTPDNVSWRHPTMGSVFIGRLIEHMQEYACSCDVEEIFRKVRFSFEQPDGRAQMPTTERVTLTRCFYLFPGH", "test": "ICE inhibition, fluorogenic Ac-Tyr-Val-Ala-Asp-AMC hydrolysis progress curves (Ki and kon)", "format": "biochemical", "details": "[I]=2 or 4 μM", "method": "The progress curves are fit to the equation F=F0 +Vf.t+(Vi -Vf) (1-exp(-kobs t))/kobs, where F0 is the initial fluorescence, Vi and Vf are initial and final reaction velocities, and kobs is the pseudo first-order rate of inhibition. Ki is calculated as Ki =SPF.[I]Vf /(Vi -Vf), where the substrate protection factor (SPF) is 1+[S]/Km =17.7. kon is calculated as SPF.kobs /[I]."}},
  "note": "Residues, ends and D or L forms follow the SMILES beside them.",
  "data": [
    {"smiles": "CC(=O)N[C@@H](Cc1ccc(O)cc1)C(=O)N[C@H](C(=O)N[C@@H](C)C(=O)N[C@H](C=O)CCC(=O)O)C(C)C", "note": "[Ac-Tyr-Val-Ala-Glu[CHO]] (Ac-YVAE-aldehyde)", "values": [
      {"measurement": "cell viability after treatment (MTT assay)", "setting": "[1]", "value": "> 95", "unit": "%"},
      {"measurement": "Ki", "setting": "[2]; ICE 0.24 nM, 250 μM substrate Ac-Tyr-Val-Ala-Asp-AMC, corrected by SPF 17.7, read-out: Ki against ICE", "value": 1.8, "unit": "nM"},
      {"measurement": "kon", "setting": "[2]; kon = SPF.kobs/[I], read-out: kon against ICE", "value": 17200, "unit": "M⁻¹ s⁻¹"}
    ]}
  ]
}
